Experimental data taken from PubChem BioAssay (NCI).
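Results reflect a 48-hour exposure of cells in 96-well plates to compound at five concentrations. Definition used: TGI = concentration required for complete inhibition of growth.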

Tests used:
Assay in all cases: NCI-60 cell line screen, 48 h
[1] = tested on: A549 NSCLC
[2] = tested on: BT-549 breast
[3] = tested on: HCC-2998 colon
[4] = tested on: HCT-116 colon
[5] = tested on: HS 578T breast
[6] = tested on: KM12 colon
[7] = tested on: MDA-N
[8] = tested on: MOLT-4 leukemia
[9] = tested on: NCI-H226 lung
[10] = tested on: NCI-H23 lung
[11] = tested on: NCI/ADR-RES ovarian
[12] = tested on: PC-3 prostate
[13] = tested on: RPMI-8226 leukemia
[14] = tested on: SF-539 CNS
[15] = tested on: SK-MEL-2 melanoma
[16] = tested on: SK-MEL-28 melanoma
[17] = tested on: SK-MEL-5 melanoma
[18] = tested on: SN12C renal
[19] = tested on: SNB-19 CNS
[20] = tested on: SR leukemia

Compound | TGI [1] [µM] | TGI [2] [µM] | TGI [3] [µM] | TGI [4] [µM] | TGI [5] [µM] | TGI [6] [µM] | TGI [7] [µM] | TGI [8] [µM] | TGI [9] [µM] | TGI [10] [µM] | TGI [11] [µM] | TGI [12] [µM] | TGI [13] [µM] | TGI [14] [µM] | TGI [15] [µM] | TGI [16] [µM] | TGI [17] [µM] | TGI [18] [µM] | TGI [19] [µM] | TGI [20] [µM]
COc1cc(OCc2nc3ccccc3n3cccc23)cc(OC)c1OC | > 100 | > 100 | > 88.3 | > 60.5 | > 100 | > 50.6 | > 100 | 14.3 | 52.4 | > 100 | > 80.4 | > 100 | 14.6 | > 100 | > 100 | > 90.5 | 9.35 | > 88.9 | > 100 | –
CCN(CC)C1Oc2cc3c(cc2C(c2ccc(OC)cc2)C1C)OCO3 (stereo not given) | 74 | 67 | 35.3 | 29.2 | 48.2 | 53.2 | 65.5 | 41.8 | 54.7 | 51 | – | 72.6 | 38 | 40.1 | 38.6 | 50.8 | 31.9 | 63 | 83.7 | 27.6
CC(=O)C(I(OS(=O)(=O)c1ccc(C)cc1)c1ccccc1)=P(c1ccccc1)(c1ccccc1)c1ccccc1 | 72.8 | 46.3 | 39 | 50.2 | 68.8 | 38.2 | 33.2 | > 100 | 38.8 | 42.7 | > 100 | > 100 | 61.1 | 39.1 | 36 | 36.4 | 63.3 | 69.2 | > 100 | –
Cc1ccc(-n2cnc3c(N)nc(N)nc32)cc1 | > 100 | > 100 | > 100 | > 100 | > 100 | > 100 | > 100 | > 100 | > 100 | > 100 | > 100 | > 100 | > 100 | > 100 | > 100 | > 100 | > 100 | > 100 | > 100 | –
CC1(C)CN=C(c2ccc3c(c2)Cc2cc(C4=NCC(C)(C)N4)ccc2-3)N1 | > 100 | > 100 | 74.1 | > 100 | > 100 | > 100 | > 100 | > 100 | > 100 | > 100 | > 100 | > 100 | 65.8 | – | 49.9 | > 100 | > 100 | > 100 | > 100 | > 100
Nc1nc(N)c2cc(Sc3ccc4nc(N)nc(N)c4c3)ccc2n1 | > 100 | > 100 | > 100 | > 100 | > 100 | > 100 | > 100 | > 100 | > 100 | – | > 100 | > 100 | > 100 | > 100 | > 100 | > 100 | – | > 100 | > 100 | > 100
COc1ccc2cc(Oc3ccc(Cl)cc3)c(=O)oc2c1 | > 100 | > 100 | – | > 100 | > 100 | > 100 | > 100 | > 100 | > 100 | > 100 | – | > 100 | > 100 | > 100 | – | > 100 | > 100 | > 100 | > 100 | > 100
COc1nc(C)nc2sc3c(c12)CCCC3 | – | > 100 | > 100 | > 100 | > 100 | > 100 | > 100 | > 100 | > 100 | > 100 | > 100 | > 100 | > 100 | – | > 100 | > 100 | > 100 | > 100 | > 100 | > 100
ClC1(Cl)C(c2ccccc2)C1c1ccccc1 (stereo not given) | > 100 | 77.4 | 30 | > 100 | > 100 | > 100 | 35.2 | > 100 | 33.9 | 76.8 | 30.8 | > 100 | 79.8 | – | 40.2 | > 100 | – | > 100 | > 100 | 55.4
CN(C)C=C1C(=O)c2c(Br)sc(Br)c2C1=O | > 100 | 48.4 | 25.9 | 53.9 | 46.9 | > 100 | 42.1 | > 100 | 33.3 | 37.8 | 73.2 | 49.9 | > 100 | 35.7 | 31.3 | 31.3 | 30.6 | > 100 | 80.4 | –
